Paper PMC11117652, “The Construction and Application of a New Screening Method for Phosphodiesterase Inhibitors” (Biosensors, 2024)
Several values for one entry are separate records, joined by “and”; a condition that tells them apart may be missing. Identical values can stand only once. Like-named read-outs stand apart in the source and are kept apart here.

What was measured:
[1] = target: T1, Recombinant human PDE7A/HCP1 protein (Homo sapiens, UniProt Q13946); assay: In vitro enzymatic activity assay (PDE-Glo Phosphodiesterase Assay), PDE7A; assay type: biochemical
T1 construct: purchased Abcam ab125786
T1 sequence (Q13946 whole entry): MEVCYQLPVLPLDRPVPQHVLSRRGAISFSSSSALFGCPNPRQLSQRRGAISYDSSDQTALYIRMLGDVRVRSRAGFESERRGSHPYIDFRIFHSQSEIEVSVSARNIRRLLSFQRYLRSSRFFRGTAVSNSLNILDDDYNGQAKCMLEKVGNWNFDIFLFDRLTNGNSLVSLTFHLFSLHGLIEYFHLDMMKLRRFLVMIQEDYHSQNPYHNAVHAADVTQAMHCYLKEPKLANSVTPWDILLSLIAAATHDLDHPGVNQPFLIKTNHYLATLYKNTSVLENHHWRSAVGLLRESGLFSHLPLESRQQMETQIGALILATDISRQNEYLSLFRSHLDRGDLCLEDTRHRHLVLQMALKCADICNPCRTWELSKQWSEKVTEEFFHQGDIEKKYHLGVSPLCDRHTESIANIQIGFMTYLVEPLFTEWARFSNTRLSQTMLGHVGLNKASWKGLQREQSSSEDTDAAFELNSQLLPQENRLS
Protocol: (§1) Penicillin–Streptomycin solution (10,000 U/mL Penicillin, 10,000 μg/mL Streptomycin; Cat #C100C5) was obtained from NCM Biotech (Suzhou, China). Fetal Bovine Serum (FBS; Cat #BC-SE-FBS01) and phosphate-buffered saline (PBS; Cat #10010001) were obtained from Sbjbio (Nanjing, China). Trypsin-EDTA Solution (Cat #BL512A) was obtained from Biosharp (Hefei, China). DMEM medium (High Glucose; Cat #XB01-01) was obtained from VivaCell (Shanghai, China). Opti-MEM medium (Cat #Lvn1012A) was obtained from Livning (Beijing, China). […] The Lipofectamine™ 2000 Transfection Kit (Cat #11668500) was obtained from Thermo Fisher Scientific (Waltham, MA, USA). The pGloSensor™-22F cAMP Plasmid map (Cat #E2301), pGloSensor™-42F cGMP Plasmid map (Cat #CS177001), and PDE-Glo™ Phosphodiesterase Assay (Cat #V1361) were purchased from Promega (Madison, WI, USA). Recombinant human PDE4B protein (Cat #ab125582) and recombinant human PDE7A/HCP1 protein (Cat #ab125786) were obtained from Abcam (Cambridgeshire, UK). Compounds 1–7 were provided by Guoqiang Li’s research group (School of Medicine and Pharmacy, Ocean University, Qingdao, China).
(§2) The inhibitory activities of the compounds against PDE4B and PDE7A were determined according to the procedures required for the PDE-Glo™ Phosphodiesterase Assay.
(§3) Data analysis was carried out using Microsoft Excel and GraphPad Prism 8 software (version 8.0.2 for Windows, GraphPad Software, San Diego, CA, USA). The data in the luminescence signal from the replica well were averaged to produce a response vs. time curve. The cell screening results of the compounds were expressed as percentages (the difference in luminescence signals between the experimental group and the blank control group/blank control group luminescence signal × 100%). For the measurement of IC50, at least seven concentrations of chemicals were used, and IC50 values were calculated using the nonlinear method.

[2] = test system: cAMP-related PDEs; assay: GloSensor live-cell screening model targeting cAMP (pGloSensor-22F cAMP plasmid in HEK293T cells, forskolin-stimulated); assay type: cell-based, human; settings: for Luminescence Signal (%): cAMP cell screening model, (experimental group - blank control)/blank control luminescence x 100%, compound concentration not given; for IC50: Homo sapiens, HEK-293T, HEK293T cells, 5 μM forskolin, n = 3, read-out: IC50 detected using the cell screening model targeting cAMP
Protocol: The HEK293T human embryonic kidney cell line was purchased from SunnCell (Wuhan, China). After recovery, HEK293T cells were passaged 3–4 times a week and cultured at 37 °C in 5% CO2. The culture medium consisted of DMEM, 10% FBS, and 1% antibiotic solution.
Cells were grown to a density of 70–80% in a 6 cm culture dish, the original culture medium was discarded, and 3 mL Opti-MEM was added. A total of 5 μL lipo2000 transfection reagents and 7 μL plasmids were each diluted to 50 μL with Opti-MEM. The above two solutions were mixed, allowed to stand for 20 min, and then added to the cell culture medium. They were then incubated with 5% CO2 at 37 °C for 5 h. The original culture medium was discarded and replaced with the DMEM culture medium. After overnight cultivation at 37 °C and 5% CO2, the transfected cells were transferred to a 96-well plate and cultured under the same conditions for 9 h.
The original culture medium was replaced with 80 μL/well loaded culture medium (containing 2 mM D-Luciferin protein) and incubated at room temperature (20–23 °C) in the dark for 2 h. A total of 10 μL/well with a concentration of 50 μM forskolin (for cAMP testing) or 250 μM SNAP (for cGMP testing) was added to the sample culture medium to increase the level of background cyclic nucleotides in the cells. According to the detection requirements, a certain concentration of analytes was sequentially added to different wells, and the luminescence signal was measured using the SynergyNeo2 (Agilent, Santa Clara, CA, USA) instrument at time 0. The measurement was conducted every 5 min, and the longest duration was based on the start of the luminescence signal’s decline.
as §3
Considering the detection efficiency, the possible toxicity of the reagent to cells, and the Z-factor, the optimal concentration of the AC agonist forskolin required for the cell screening model targeting cAMP was set at 5 μM.
To determine the shortest detection time for the two cell models, the luminescence signal–time curve was established. Based on the variations in luminescence detection values over time from two sets of data (Figure 2), it was determined that the detection time for cell screening models targeting cAMP should not be less than 35 min, while the detection time for cell screening models targeting cGMP should not be less than 30 min.

[3] = target: T2, Recombinant human PDE4B protein (Homo sapiens, UniProt Q07343); assay: In vitro enzymatic activity assay (PDE-Glo Phosphodiesterase Assay), PDE4B; assay type: biochemical
T2 construct: purchased Abcam ab125582
T2 sequence (Q07343 whole entry): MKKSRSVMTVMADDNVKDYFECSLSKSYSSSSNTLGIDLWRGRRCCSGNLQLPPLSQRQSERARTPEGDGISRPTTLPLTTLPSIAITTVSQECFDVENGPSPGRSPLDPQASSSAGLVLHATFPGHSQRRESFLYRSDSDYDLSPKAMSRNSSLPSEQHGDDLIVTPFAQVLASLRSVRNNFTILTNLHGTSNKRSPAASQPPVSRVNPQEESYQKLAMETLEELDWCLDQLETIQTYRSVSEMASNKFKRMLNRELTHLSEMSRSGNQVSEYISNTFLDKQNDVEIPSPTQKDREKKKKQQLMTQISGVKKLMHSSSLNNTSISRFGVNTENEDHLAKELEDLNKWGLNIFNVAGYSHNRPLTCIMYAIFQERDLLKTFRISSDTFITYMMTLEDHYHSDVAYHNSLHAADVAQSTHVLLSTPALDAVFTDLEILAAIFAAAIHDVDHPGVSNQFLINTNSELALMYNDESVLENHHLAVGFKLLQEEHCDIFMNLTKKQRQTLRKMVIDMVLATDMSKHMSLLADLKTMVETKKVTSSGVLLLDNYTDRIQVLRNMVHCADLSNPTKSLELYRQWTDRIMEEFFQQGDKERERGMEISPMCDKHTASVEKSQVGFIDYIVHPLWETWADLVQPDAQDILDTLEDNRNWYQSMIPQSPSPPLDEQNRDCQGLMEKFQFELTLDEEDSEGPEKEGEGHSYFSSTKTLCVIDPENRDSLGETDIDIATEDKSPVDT
Protocol: as §1, with “UK).” for “UK). Compounds 1–7 were provided by Guoqiang Li’s research group (School of Medicine and Pharmacy, Ocean University, Qingdao, China).”
as §2
Data analysis was carried out using Microsoft Excel and GraphPad Prism 8 software (version 8.0.2 for Windows, GraphPad Software, San Diego, CA, USA). The data in the luminescence signal from the replica well were averaged to produce a response vs. time curve. […] For the measurement of IC50, at least seven concentrations of chemicals were used, and IC50 values were calculated using the nonlinear method.

[4] = test system: cGMP-related PDEs; assay: GloSensor live-cell screening model targeting cGMP (pGloSensor-42F cGMP plasmid in HEK293T cells, SNAP-stimulated); assay type: cell-based; settings: Homo sapiens, HEK-293T, read-out: IC50 detected using the cell screening model targeting cGMP
Protocol: The HEK293T human embryonic kidney cell line was purchased from SunnCell (Wuhan, China). After recovery, HEK293T cells were passaged 3–4 times a week and cultured at 37 °C in 5% CO2. The culture medium consisted of DMEM, 10% FBS, and 1% antibiotic solution. Cells were grown to a density of 70–80% in a 6 cm culture dish, the original culture medium was discarded, and 3 mL Opti-MEM was added. A total of 5 μL lipo2000 transfection reagents and 7 μL plasmids were each diluted to 50 μL with Opti-MEM. The above two solutions were mixed, allowed to stand for 20 min, and then added to the cell culture medium. They were then incubated with 5% CO2 at 37 °C for 5 h. The original culture medium was discarded and replaced with the DMEM culture medium. After overnight cultivation at 37 °C and 5% CO2, the transfected cells were transferred to a 96-well plate and cultured under the same conditions for 9 h. The original culture medium was replaced with 80 μL/well loaded culture medium (containing 2 mM D-Luciferin protein) and incubated at room temperature (20–23 °C) in the dark for 2 h. A total of 10 μL/well with a concentration of 50 μM forskolin (for cAMP testing) or 250 μM SNAP (for cGMP testing) was added to the sample culture medium to increase the level of background cyclic nucleotides in the cells. According to the detection requirements, a certain concentration of analytes was sequentially added to different wells, and the luminescence signal was measured using the SynergyNeo2 (Agilent, Santa Clara, CA, USA) instrument at time 0. The measurement was conducted every 5 min, and the longest duration was based on the start of the luminescence signal’s decline. Data analysis was carried out using Microsoft Excel and GraphPad Prism 8 software (version 8.0.2 for Windows, GraphPad Software, San Diego, CA, USA). The data in the luminescence signal from the replica well were averaged to produce a response vs. time curve. The cell screening results of the compounds were expressed as percentages (the difference in luminescence signals between the experimental group and the blank control group/blank control group luminescence signal × 100%). For the measurement of IC50, at least seven concentrations of chemicals were used, and IC50 values were calculated using the nonlinear method. […] Similar to the cell screening models targeting cAMP, the cell screening models targeting cGMP could not effectively detect the ability of sildenafil to increase intracellular cGMP levels when the GC agonist SNAP was not present or was at low concentrations. […] To determine the shortest detection time for the two cell models, the luminescence signal–time curve was established.

[5] = test system: PDE5; parameters: method as in PMID 12646997; settings: cited from earlier work
[6] = HEK293T cells, 25 μM SNAP, n = 3

Compound	IC50 [1]	Luminescence Signal (%) [2] [%]	IC50 [3] [µM]	further results
Cc1ccc([N+](=O)[O-])cc1S(=O)(=O)N(C)C [BRL-50481, reference compound]	0.2 µM			
Clc1cccc(Cl)c1C=Cc1ccccn1 [Compound 1, 2-[2-(2,6-Dichlorophenyl)-ethenyl] pyridine]	28.7 µM	109	63.7	
COc1cc(C=Cc2ccccn2)cc(OC)c1OC [Compound 2, 2-[2-(3,4,5-Trimethoxyphenyl)-ethenyl] pyridine]	47.4 µM	51	25.5	
COc1cc(C=Cc2cccnc2)cc(OC)c1OC [Compound 3, 3-[2-(3,4,5-Trimethoxyphenyl)-ethenyl] pyridine]	4.5 µM	87	5.7	
COc1cc(C=Cc2ccncc2)cc(OC)c1OC [Compound 4, 4-[2-(3,4,5-Trimethoxyphenyl)-ethenyl] pyridine]	8.6 µM	77	12.6	
COc1ccccc1C=Cc1ccc(N(C)C)cc1 [Compound 5, 4-[2-(2-Methoxyphenyl)-ethenyl]-N,N-dimethylbenzenamine]	2.1 µM	55	14.1	
CC(=O)O[C@@H]1C(=O)CCC2=CCC[C@H](C)[C@@]2(C)/C=C\1C [Compound 6, 4-acetoxy-2,8-neolemnadien-5-one]	36.2 µM	51		PDE7A inhibitory activity (in words) [1]: weak
Cc1c(O)c(C)c2c(c1O)C(=O)O[C@](C)(O)[C@H]2C [Compound 7, (3S,4S)-sclerotinin A]	~5.6 µM and 5.6 µM	53	28.2	PDE4B inhibitory activity (in words) [3]: weak
COc1cc2c(cc1OC)-c1c(OC)c(OC)cc3c1[C@H](C2)N(C)CC3 [Glaucine, reference compound]				IC50 [2]: 59.8 µM
CC(C)Cn1c(=O)n(C)c(=O)c2[nH]cnc21 [IBMX, Isobutylmethylxanthine, reference compound]				IC50 [4, 6]: 184 µM; IC50 [2]: 28.6 µM
COc1ccc(-c2oc3c(CC=C(C)C)c(O[C@@H]4O[C@H](CO)[C@@H](O)[C@H](O)[C@H]4O)cc(O)c3c(=O)c2O[C@@H]2O[C@@H](C)[C@H](O)[C@@H](O)[C@H]2O)cc1 [Icariin]				IC50 [4]: 642 µM; IC50 [5]: 0.432 µM
Cc1nc(-c2cnn(C)c2-c2ccc(C(F)(F)F)cn2)c2c(N3CCC3)ncnn12 [PF-999, PF-05180999, reference compound]				IC50 [4, 6]: 45.6 µM; IC50 [2]: 142 µM
COc1ccc(C2CNC(=O)C2)cc1OC1CCCC1 (stereo not shown) [Rolipram, rolipram, reference compound]		300		IC50 [2]: ~0.1 µM; difference in luminescence signal values between rolipram and PBS groups ([2]; rolipram 5 μM, forskolin 5 μM, cAMP cell model): over 1000
CCCc1nn(C)c2c(=O)[nH]c(-c3cc(S(=O)(=O)N4CCN(C)CC4)ccc3OCC)nc12 [Sildenafil, sildenafil]				IC50 [4, 6]: ~0.1 µM
